Experimental data as given in patent publication US20040175691A1, “Use of the KCNQ2 and KCNQ3 genes for the discovery of agents useful in the treatment of neurological disorders” (priority 1998, published 2004).

Assays:
KCNQ2 = KCNQ2 (Homo sapiens, UniProt O43526, DEL417-446); experiment: Blockade of KCNQ2 channels expressed in Xenopus oocytes; type: cell-based; parameters: Full-length KCNQ2 cDNAs were amplified from adult human brain cDNA; expressed in transfected cells; host or cells: Xenopus oocytes injected with cRNA; details: homomultimeric KCNQ2, oocytes; Hill coefficient set to unity; read-out: KD for TEA block of KCNQ2 channels
Procedure: (§1) Method: Full-length KCNQ2 cDNAs were amplified from adult human brain cDNA using the following primers ([…], […]) with the Expand Fidelity enzyme mixture (Boehringer Mannheim, Indianapolis). […] This region is also alternatively spliced in the KCNQ2 cDNA clone described by Biervert et al. (1998). Preparation, injection of cRNA and recording from oocytes was performed at room temperature as described previously (Dixon et al. 1996). The standard extracellular recording solution contained: 82 mM NaCl, 2 mM KCl, 1.8 mM CaCl2, 1 mM MgCl2, and 5 mM Na-HEPES (pH 7.6). Data collection and analysis were performed using pClamp software (Axon Instruments, Foster City, Calif.).
IC50 values are all expressed in μM, mean±s.e.m.

M-current = molecular target: T1, M-current (Rattus norvegicus, UniProt O88943+O88944); experiment: Blockade of native M-current in SCG neurons (voltage clamp, intact ganglia); type: cell-based; details: rat sympathetic neurons; read-out: KD for TEA blockade of native M-current
T1 construct: from tissue
Procedure: Method: Recordings of the M-current in sympathetic neurons in intact ganglia were performed at room temperature as described previously (Wang and McKinnon, 1995). The standard extracellular recording solution was: NaCl (133 mM, KCl (4.7 mM), NaH2PO4 (1.3 mM), NaHCO3 (16.3 mM), CaCl2 (2 mM), MgCl2 (1.2 mM) and glucose (1.4 g/liter), bubbled with 95% O2-5% CO2 to give pH 7.2-7.4.
A. Blockade of M-current in SCG neurons by XE991. Holding potential was −30 mV and step potential was −50 mV for 1 second. The shift in holding current following drug application is due to the inhibition of M-current activated at the holding potential.
Maximal block of native M-current was 93±2%. Data points are averages and error bars represent s.e.m.

KCNQ2 + KCNQ3 = molecular target: T2, KCNQ2 + KCNQ3 (UniProt O43526+O88944, DEL417-446); experiment: Blockade of KCNQ2+KCNQ3 channels expressed in Xenopus oocytes; type: cell-based, human KCNQ2, rat KCNQ3
T2 construct: Full-length KCNQ2 cDNAs were amplified from adult human brain cDNA; Multiple full-length cDNA clones were amplified in independent PCR reactions from rat SCG cDNA; expressed in transfected cells; host or cells: Xenopus oocytes injected with cRNA
Procedure: as §1
Holding potential was −60 mV and the cell was repetitively depolarized to −30 mV for 1 minute to reach steady-state blockade. Tail currents were recorded at −50 mV.
IC50 values are all expressed in μM, mean±s.e.m. In cases where the IC50 values were greater than 100 μM the exact value is not reported due to limited solubility in the drug.

hKCNQ2 potassium channel = molecular target: T3, hKCNQ2 potassium channel (Homo sapiens, UniProt O43526, DEL417-446); experiment: Membrane potential-evoked fluorescence (FLIPR, DiBAC) in HEK 293E cells stably expressing hKCNQ2; type: cell-based; details: FIG. 7
T3 construct: Full-length hKCNQ2 cDNAs were amplified from adult human brain cDNA; expressed in transfected cells; host or cells: 293 EBNA (HEK 293E) cells, episomal plasmid pm3AR-hKCNQ2-1, hygromycin B selection
Procedure: The ability of KCNQ2 modulators to alter membrane potential was assessed using a fluorescence imaging plate reader (FLIPR). Cultured HEK 293E cells expressing hKCNQ2 channels are plated on poly-D-lysine-coated 96-well Costar microplates (#3603) at 300,000-750,000 cells/ml and allowed to reach confluence in DMEM (with 10% FBS and 250 ug/ml hygromycin B) at 37° C. and 5% CO2. After reaching confluence, growth medium is removed, replaced with a standard Hank's balanced salt solution containing 5 uM dibac(4)3, bis-oxonol (Molecular Probes # B-438) at 37° C. The cell plate is then placed in the recording chamber (equilibrated to 37° C.) of a fluorescence imaging plate reader (FLIPR; Molecular Devices) along with two drug plates (one containing standard Hank's balanced salt solution+dibac and the other containing standard Hank's balanced salt solution+dibac+test compound at various experimental concentrations).
These cells were loaded with the voltage-sensitive fluorescent dye, DiBAC, that distributes across cell membranes in a voltage-dependent manner. As cells depolarize (become more positive inside), more dye enters the cells and an increase in fluorescence occurs.
In FIG. 7, the relative effects of several M-current modulators on the flourescence of HEK 293E cells stably expressing the hKCNQ2 potassium channel is shown. These cells were loaded with the voltage-sensitive fluorescent dye, DiBAC, that distributes across cell membranes in a voltage-dependent manner. As cells depolarize, more dye enters the cells and an increase in fluorescence occurs. Conversely, as cells hyperpolarize (become more negative inside), more dye leaves the cells and a decrease in fluorescence occurs.

| SMILES | Kd (KCNQ2) | Kd (M-current) | Kd (KCNQ2 + KCNQ3; co-injection of KCNQ2 and KCNQ3 mRNAs, read-out: KD for TEA block of KCNQ2+KCNQ3 channels) | Hill coefficient of TEA block of KCNQ2+KCNQ3 channels (KCNQ2 + KCNQ3; dose response fitted with Hill equation) | Relative effect on fluorescence / membrane potential (hKCNQ2 potassium channel; 3 μM) | Relative effect on fluorescence / membrane potential (hKCNQ2 potassium channel; 100 μM) |
| --- | --- | --- | --- | --- | --- | --- |
| CC[N+](CC)(CC)CC [TEA, tetraethylammonium] | 0.16 ± 0.02 mM | 6.1 mM | 3.5 ± 0.7 mM | 0.82±0.03 |  |  |
| Nc1ccc(CC2(Cc3ccc(N)cc3)C(=O)N(c3ccccc3)c3ccccc32)cc1 [X7315] |  |  |  |  | no effect | apparent membrane hyperpolarization |
| O=C1c2ccccc2C(Cc2ccnc(F)c2)(Cc2ccnc(F)c2)c2ccccc21 [XR543] |  |  |  |  | more membrane depolarization than linopirdine |  |
